In US12514254B2, “Rosa canina rosehip” (priority 2020, dated 2026) one finds Drug-resistance profile data, which are given here for 31 compounds.

The test system of one assay is P. aeruginosa. Put plainly: Drug-resistance profile towards antibiotics. Also: key: R = resistant; S = sensitive. Format: cell-based, Pseudomonas aeruginosa. The procedure: (§1) The resistance profiles of the microbial strains mentioned above, evaluated by the inventors and available in the literature, are reported in Tables 4 and 5 [24-26].
(§2) The activity on bacterial or fungal (yeast) strains isolated from biological samples from hospitalized or collection patients was evaluated, the nosocomial derivation of the majority of these strains characterized their resistance to different antimicrobials as reported in Tables 4 and 5.
(§3) In particular: • Klebsiella pneumoniae: represents the main opportunistic microorganism responsible for nosocomial infections and several authors report persistent biofilms of K. pneumoniae in water systems. A clinical isolate (NC5) was used to assess the actual resistance to the preparations. • Escherichia coli: the ATCC 7075 (American Type Culture Collection) strain was used. • Staphylococcus aureus Methicillin-resistantATCC BAA-811 is responsible for several suppurative infections in humans, it is often isolated in patients with prostheses. • Pseudomonas aeruginosa: in the present work a mucoid strain was tested (ATCC 15442) from the American Type Culture Collection (ATCC), known in the literature for its remarkable refractoriness to disinfectants, in particular if the strain is present in sessile form or in a state of mature biofilm. https://www.lgcstandards-atcc.org/products/all/15442.aspx?geo_country=it • Three azole-resistant clinical isolates belonging to the Candida genus were used, in particular: C. albicans clinical isolate BF1, C. krusei clinical isolate BF2 andclinical C. glabrata, isolate BF3 [1,26]. • In all the tests performed, each microbial species was cultivated according to standard growth conditions, in particular: • 1. Mueller-Hinton Agar medium (Microbiol, Uta, Cagliari), was used for the growth of E. coli, S. aureus, P. aeruginosa and K. pneumoniae. The development conditions were: in air at 37° C. • 2. Schaedler Agar and Broth (Microbiol) medium was used for the growth of S. pyogenes and S. mutans. Development conditions: in air and 5% CO2 at 37° C. • 3. Sabouraud Dextrose Agar and Broth (Microbiol), used for C. albicans, C. krusei and C. glabrata. Development conditions: in air at 37° C.

In a further assay the test system is E. coli. Description: Drug-resistance profile towards antibiotics. Also: key: R = resistant; S = sensitive. Format: cell-based, Escherichia coli. The method, then: as §1, §2, §3
In another assay the test system is K. pneumoniae. Put plainly: Drug-resistance profile towards antibiotics. Also: key: R = resistant; S = sensitive. Format: cell-based, Klebsiella pneumoniae. The procedure:
as §1, §2, §3

Another assay concerns S. aureus MRSA. Put plainly: Drug-resistance profile towards antibiotics. Also: key: R = resistant; S = sensitive. In kind it is cell-based, Staphylococcus aureus. The method, then:
as §1, §2, §3

Another assay deals with S. pyogenes. Put plainly: Drug-resistance profile towards antibiotics. Also: key: R = resistant; S = sensitive. In kind it is cell-based, Streptococcus pyogenes. The method, then: as §1, §2, §3
In another assay the test system is C. glabrata. Description: Drug-resistance profile of fungal strains. Format: cell-based, Candida glabrata. The method, then:
as §1, §2
as §3, with “Sabouraud Dextrose Agar and Broth (Microbiol), used for C. albicans, C. krusei and C. glabrata. Development conditions: in air at 37° C.” left out

In the next assay the test system is C. albicans. Description: Drug-resistance profile of fungal strains. Format: cell-based, Candida albicans. The method, then:
as §1, §2
as §3, with “Sabouraud Dextrose Agar and Broth (Microbiol), used for C. albicans, C. krusei and C. glabrata. Development conditions: in air at 37° C.” left out

The test system of a further assay is C. krusei. Put plainly: Drug-resistance profile of fungal strains. Format: cell-based, Candida krusei. The method, then:
as §1, §2
as §3, with “Sabouraud Dextrose Agar and Broth (Microbiol), used for C. albicans, C. krusei and C. glabrata. Development conditions: in air at 37° C.” left out

Turning to `NCC[C@H](O)C(=O)N[C@@H]1C[C@H](N)[C@@H](O[C@H]2O[C@H](CN)[C@@H](O)[C@H](O)[C@H]2O)[C@H](O)[C@H]1O[C@H]1O[C@H](CO)[C@@H](O)[C@H](N)[C@H]1O` [Amikacin], the Drug-resistance profile entry is listed as “S” in the assay with P. aeruginosa, “R” with E. coli and “R” in the assay with K. pneumoniae.
Consider `CC1(C)S[C@@H]2[C@H](NC(=O)Cc3ccccc3)C(=O)N2[C@H]1C(=O)O` [Benzylpenicillin], for which the Drug-resistance profile result with S. aureus MRSA is reported as “R”.
For `CO/N=C(\C(=O)N[C@@H]1C(=O)N2C(C(=O)[O-])=C(C[N+]3(C)CCCC3)CS[C@H]12)c1csc(N)n1` [Cefepime], the Drug-resistance profile result in the assay on P. aeruginosa and with K. pneumoniae was “S” in each case.
For the compound `CO/N=C(\C(=O)N[C@@H]1C(=O)N2C(C(=O)O)=C(COC(C)=O)CS[C@H]12)c1csc(N)n1` [Cefotaxime], in the assay with E. coli, the Drug-resistance profile result is “S”.
Regarding `CCO/N=C(\C(=O)N[C@@H]1C(=O)N2C(C(=O)[O-])=C(Sc3nc(-c4cc[n+](C)cc4)cs3)CS[C@H]12)c1nsc(N)n1` [Ceftaroline], the Drug-resistance profile result in the assay on S. aureus MRSA is listed as “S”.
On to `CC(C)(O/N=C(\C(=O)N[C@@H]1C(=O)N2C(C(=O)[O-])=C(C[n+]3ccccc3)CS[C@H]12)c1csc(N)n1)C(=O)O` [Ceftazidime], for which the Drug-resistance profile result in the assay with P. aeruginosa, with E. coli and in the assay on K. pneumoniae was “S” throughout.
`O=C(O)c1cn(C2CC2)c2cc(N3CCNCC3)c(F)cc2c1=O` [Ciprofloxacin]: the figures for the Drug-resistance profile result with P. aeruginosa and with K. pneumoniae were “R” and “S”, respectively.
As to `CCC[C@@H]1C[C@@H](C(=O)N[C@@H]([C@H]2O[C@H](SC)[C@H](O)[C@@H](O)[C@H]2O)[C@H](C)Cl)N(C)C1` [Clindamycin], the Drug-resistance profile entry with S. aureus MRSA and in the assay with S. pyogenes was “S” each time.
Regarding `CCCCCCCCCC(=O)N[C@@H](Cc1c[nH]c2ccccc12)C(=O)N[C@H](CC(N)=O)C(=O)N[C@@H](CC(=O)O)C(=O)N[C@@H]1C(=O)NCC(=O)N[C@@H](CCCN)C(=O)N[C@@H](CC(=O)O)C(=O)N[C@H](C)C(=O)N[C@@H](CC(=O)O)C(=O)NCC(=O)N[C@H](CO)C(=O)N[C@@H]([C@H](C)CC(=O)O)C(=O)N[C@@H](CC(=O)c2ccccc2N)C(=O)O[C@@H]1C` [Daptomycin], the Drug-resistance profile entry in the assay with S. aureus MRSA is “S”.
Turning to `C[C@@H](O)[C@H]1C(=O)N2C(C(=O)O)=C(S[C@@H]3CN[C@H](C(=O)Nc4cccc(C(=O)O)c4)C3)[C@H](C)[C@H]12` [Ertapenem], the Drug-resistance profile entry is reported as “R” in the assay with P. aeruginosa, “S” in the assay on E. coli and “R” with K. pneumoniae.
Consider `CC[C@H]1OC(=O)[C@H](C)[C@@H](O[C@H]2C[C@@](C)(OC)[C@@H](O)[C@H](C)O2)[C@H](C)[C@@H](O[C@@H]2O[C@H](C)C[C@H](N(C)C)[C@H]2O)[C@](C)(O)C[C@@H](C)C(=O)[C@H](C)[C@@H](O)[C@]1(C)O` [Erythromycin], for which the values for the Drug-resistance profile entry with S. aureus MRSA and in the assay on S. pyogenes were “R” and “S”, respectively.
For `OC(Cn1cncn1)(Cn1cncn1)c1ccc(F)cc1F` [Fluconazole], the Drug-resistance profile result in the assay with C. glabrata (FLC reference values), in the assay with C. albicans (FLC reference values) and with C. krusei (FLC reference values) was “R (FLC: R > 64 μg/mL)” each time.
Consider `C[C@@H]1O[C@@H]1P(=O)(O)O` [Fosfomycin], for which the values for the Drug-resistance profile result in the assay with P. aeruginosa and with K. pneumoniae were “R” and “S”, respectively.
As for `CC(=O)O[C@H]1C[C@@]2(C)[C@@H](C[C@@H](O)[C@H]3[C@@]4(C)CC[C@@H](O)[C@@H](C)[C@@H]4CC[C@@]32C)/C1=C(\CCC=C(C)C)C(=O)O` [Fusidic acid], the Drug-resistance profile result in the assay with S. aureus MRSA and in the assay on S. pyogenes was “S” each time.
With `C[C@@H](O)[C@H]1C(=O)N2C(C(=O)O)=C(SCCN=CN)C[C@H]12` [Imipenem], the Drug-resistance profile result in the assay on P. aeruginosa and with K. pneumoniae was “S” each time.
`CC(=O)N1CCN(c2ccc(OCC3COC(Cn4ccnc4)(c4ccc(Cl)cc4Cl)O3)cc2)CC1` (stereo not shown) [Ketoconazole]: the Drug-resistance profile result in the assay with C. glabrata (KTC reference values), in the assay on C. albicans (KTC reference values) and with C. krusei (KTC reference values) was “R (KTC: R > 1 μg/mL)” throughout.
`C[C@H]1COc2c(N3CCN(C)CC3)c(F)cc3c(=O)c(C(=O)O)cn1c23` [Levofloxacin]: the Drug-resistance profile entry with S. aureus MRSA and with S. pyogenes was “S” each time.
Regarding `CC(=O)NC[C@H]1CN(c2ccc(N3CCOCC3)c(F)c2)C(=O)O1` [Linezolid], the Drug-resistance profile entry in the assay on S. aureus MRSA and in the assay with S. pyogenes was “S” each time.
Consider `C[C@@H](O)[C@H]1C(=O)N2C(C(=O)O)=C(S[C@@H]3CN[C@H](C(=O)N(C)C)C3)[C@H](C)[C@H]12` [Meropenem], for which the Drug-resistance profile entry in the assay with P. aeruginosa, in the assay with E. coli and in the assay with K. pneumoniae was “S” throughout.
As for `Cc1onc(-c2ccccc2)c1C(=O)N[C@@H]1C(=O)N2[C@@H]1SC(C)(C)[C@@H]2C(=O)O` [Oxacillin], the figures for the Drug-resistance profile result in the assay with S. aureus MRSA and in the assay on S. pyogenes were “S” and “R”, respectively.
For `CO[C@H]1/C=C/O[C@@]2(C)Oc3c(C)c(O)c4c(O)c(c(/C=N/N5CCN(C)CC5)c(O)c4c3C2=O)NC(=O)/C(C)=C\C=C\[C@H](C)[C@H](O)[C@@H](C)[C@@H](O)[C@@H](C)[C@H](OC(C)=O)[C@@H]1C` [Rifampicin], in that order: “S” and “S”.
In the case of `CN(C)[C@@H]1C(O)=C(C(N)=O)C(=O)[C@@]2(O)C(O)=C3C(=O)c4c(O)cccc4[C@@](C)(O)[C@H]3C[C@@H]12` [Tetracycline], the Drug-resistance profile result in the assay with S. aureus MRSA was “S”.
Regarding `CN(C)c1cc(NC(=O)CNC(C)(C)C)c(O)c2c1C[C@H]1C[C@H]3[C@H](N(C)C)C(O)=C(C(N)=O)C(=O)[C@@]3(O)C(O)=C1C2=O` [Tigecycline], the Drug-resistance profile result in the assay on S. aureus MRSA and in the assay with S. pyogenes was “S” in each case.
As to `CN[C@H](CC(C)C)C(=O)N[C@H]1C(=O)N[C@@H](CC(N)=O)C(=O)N[C@H]2C(=O)N[C@H]3C(=O)N[C@H](C(=O)N[C@H](C(=O)O)c4cc(O)cc(O)c4-c4cc3ccc4O)[C@H](O)c3ccc(c(Cl)c3)Oc3cc2cc(c3O[C@@H]2O[C@H](CO)[C@@H](O)[C@H](O)[C@H]2O[C@H]2C[C@](C)(N)[C@H](O)[C@H](C)O2)Oc2ccc(cc2Cl)[C@H]1O` [Vancomycin], the Drug-resistance profile entry with S. aureus MRSA and in the assay on S. pyogenes was “S” throughout.
`C[C@@H](c1ncncc1F)[C@](O)(Cn1cncn1)c1ccc(F)cc1F` [Voriconazole]: the Drug-resistance profile entry with C. glabrata (VRC reference values), with C. albicans (VRC reference values) and in the assay with C. krusei (VRC reference values) was “R (VRC: R > 4 μg/mL)” in each case.
With Amoxicillin/ac. Clavulanic, the Drug-resistance profile entry with E. coli is given as “R”.
For Colistin, the Drug-resistance profile result in the assay with P. aeruginosa and in the assay with K. pneumoniae was “S” each time.
In the case of Gentamicin, the Drug-resistance profile result in the assay on S. aureus MRSA, in the assay on P. aeruginosa, in the assay on K. pneumoniae and in the assay on S. pyogenes was “S” throughout.
Piperacillin-tazobactam: the Drug-resistance profile entry in the assay with P. aeruginosa, with E. coli and with K. pneumoniae was “S” each time.
As for Teicoplanin, the Drug-resistance profile entry in the assay on S. aureus MRSA is on record as “S”.
Consider Trimethoprim-sulfamethoxazole, for which the Drug-resistance profile result is recorded as “S” in the assay with S. aureus MRSA, “R” in the assay with P. aeruginosa, “R” in the assay on K. pneumoniae and “R” in the assay with S. pyogenes.
